Measurements published in PMC4679714, “Influence of a novel, versatile bifunctional chelator on theranostic properties of a minigastrin analogue” (EJNMMI Research, 2015).
Square brackets hold non-standard residues; d marks the D form. Peptide text beside a SMILES is read from it. * marks the point of attachment. X1 = O=C(O)CN1CCN(CC(=O)O)CC(CCCCCCCCCC(=O)*)(N(CC(=O)O)CC(=O)O)C1

Legend:
[1] = set-up: method as in doi:10.1002/ejic.201201108; conditions: cited from earlier work
human CCK2 receptor = target: T1, human CCK2 receptor (Homo sapiens, UniProt P32239); assay: Receptor binding affinity (IC50), displacement of 177Lu-labelled CP04 from CCK2+ cell membranes; conditions: radioligand 177Lu-labelled CP04, 1 h at 37 °C
T1 construct: expressed in transfected cells; host or cells: A431-309CCK2R (A431 cells transfected with CCK2R); membranes released by hypoosmotic lysis
T1 sequence (P32239 1-447): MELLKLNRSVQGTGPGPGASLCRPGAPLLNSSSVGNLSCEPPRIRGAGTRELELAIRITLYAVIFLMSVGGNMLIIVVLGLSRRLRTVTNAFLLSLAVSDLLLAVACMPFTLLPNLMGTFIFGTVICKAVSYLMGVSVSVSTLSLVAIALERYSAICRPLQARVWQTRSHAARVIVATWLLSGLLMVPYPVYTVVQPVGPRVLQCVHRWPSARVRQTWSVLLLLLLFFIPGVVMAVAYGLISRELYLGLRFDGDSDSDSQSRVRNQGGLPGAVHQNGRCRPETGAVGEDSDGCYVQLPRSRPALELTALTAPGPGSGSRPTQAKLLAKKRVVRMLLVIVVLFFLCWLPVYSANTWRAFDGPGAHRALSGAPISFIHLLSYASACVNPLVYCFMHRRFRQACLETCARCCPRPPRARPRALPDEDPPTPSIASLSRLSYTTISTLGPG
Method: A human transfected cell line was used with two different expression properties of the cholecystokinin (CCK) receptor: CCK2+ (A431-309CCK2R; receptor-positive cells) and CCK2− (A431-609; mock transfected control cells) cells.
In vitro binding affinities of AAZTA-MG were determined by using CCK2+ cell membranes and ^177Lu-labelled CP04 (a minigastrin analogue with high affinity to the CCK2 receptor) as radioligand incubated with increasing concentrations of the competitor. As competitor AAZTA-MG and [^natLu]- and [^natGa]-AAZTA-MG were used. The latter were prepared by incubating 10 μg AAZTA-MG with a tenfold molar excess of Lu-chloride in ascorbic acid buffer and 100 μl Ga-bromide in sodium acetate buffer for 10 min, respectively.
The 96-well plates (MulitScreen Filter Plates, HTS) were washed with 250 μL 10 mM TRIS buffered saline (pH 7.3). CCK2 cells were diluted in 20 mM HEPES buffer containing […] MgCl2—in this hypoosmotic solution the cells were cracked releasing free membranes.

| Compound | Stability constant (logK) for Ga^3+ [1] | Stability constant (logK) for In^3+ [1] | further results |
| --- | --- | --- | --- |
| CC1(N(CC(=O)O)CC(=O)O)CN(CC(=O)O)CCN(CC(=O)O)C1 [AAZTA, 6-[Bis(carboxymethyl)amino]-1,4-bis(carboxymethyl)-6-methyl-1,4-diazepane] | 22.18 | 29.58 |  |
| CSCC[C@H](NC(=O)[C@H](Cc1c[nH]c2ccccc12)NC(=O)CNC(=O)[C@H](Cc1ccc(O)cc1)NC(=O)[C@H](C)NC(=O)[C@@H](CCC(=O)O)NC(=O)CCCCCCCCCC1(N(CC(=O)O)CC(=O)O)CN(CC(=O)O)CCN(CC(=O)O)C1)C(=O)N[C@@H](CC(=O)O)C(=O)N[C@@H](Cc1ccccc1)C(N)=O [AAZTA-MG, [AAZTA^0, D-Glu^1, desGlu^2–6]-minigastrin] (X1-[dE]AYGWMDF-NH2) |  |  | IC50 (human CCK2 receptor): 10 nM |
| CSCC[C@H](NC(=O)[C@H](Cc1c[nH]c2ccccc12)NC(=O)CNC(=O)[C@H](Cc1ccc(O)cc1)NC(=O)[C@H](C)NC(=O)[C@@H](CCC(=O)O)NC(=O)CCCCCCCCCC1(N(CC(=O)O)CC(=O)O)CN(CC(=O)O)CCN(CC(=O)O)C1)C(=O)N[C@@H](CC(=O)O)C(=O)N[C@@H](Cc1ccccc1)C(N)=O [[^natGa]AAZTA-MG, metal not drawn] (X1-[dE]AYGWMDF-NH2) |  |  | IC50 (human CCK2 receptor; listed as [^natGa]-AAZTA-MG): 8.18 ± 3.16 nM |
| CSCC[C@H](NC(=O)[C@H](Cc1c[nH]c2ccccc12)NC(=O)CNC(=O)[C@H](Cc1ccc(O)cc1)NC(=O)[C@H](C)NC(=O)[C@@H](CCC(=O)O)NC(=O)CCCCCCCCCC1(N(CC(=O)O)CC(=O)O)CN(CC(=O)O)CCN(CC(=O)O)C1)C(=O)N[C@@H](CC(=O)O)C(=O)N[C@@H](Cc1ccccc1)C(N)=O [[^natLu]AAZTA-MG, metal not drawn] (X1-[dE]AYGWMDF-NH2) |  |  | IC50 (human CCK2 receptor; listed as [^natLu]): 9.44 ± 4.57 nM |
| O=C(O)CN1CCN(CC(=O)O)CCN(CC(=O)O)CCN(CC(=O)O)CC1 [^68Ga-DOTA, 1,4,7,10-tetraazacyclododecane-1,4,7,10-tetraacetic acid, metal not drawn] | 21.3 | 23.9 |  |
